One assay deals with HDL cholesterol. Description: In vivo activity: oral action on lipoproteins and triglycerides in hamsters (HDL rise). On the set-up: species or system Syrian golden hamsters. To be noted: dose 2 × 3 mg/kg, up to 24 hours. As for the experimental part:
In experiments to determine the oral action on lipoproteins and triglycerides, test substance dissolved in DMSO and 0.5% Tylose suspended by means of a stomach tube are administered orally to Syrian golden hamsters from in-house breeding. To determine the CETP activity, blood (about 250 μl) is taken by retro-orbital puncture before the start of the experiment. The test substances are then administered orally by means of a stomach tube. The control animals receive identical volumes of solvents without test substance. The feed is then withdrawn from the animals and blood is taken at various times--up to 24 hours after substance administration--by puncture of the retro-orbital venous plexus. Clotting is ended by incubation at 4° C. overnight, then centrifugation at 6000×g is carried out for 10 minutes. In the serum thus obtained, the content of cholesterol and triglycerides is determined with the aid of modified commercially available enzyme tests (cholesterol enzymatic 14366 Merck, triglycerides 14364 Merck). Serum is suitably diluted using physiological saline solution.
100 μl of serum dilution are mixed with 100 μl of […] in 96-hole plates and incubated at room temperature for 10 minutes. The optical density is then determined at a wavelength of 492 nm using an automatic plate-reading apparatus. The triglyceride or cholesterol concentration contained in the samples is determined with the aid of a standard curve measured in parallel.
The determination of the content of HDL cholesterol is carried out according to the manufacturer's instructions after precipitation of the ApoB-containing lipoproteins by means of a reagent mixture (Sigma 352-4 HDL cholesterol reagent).

The target in assay [1] is T1, cholesterol ester transfer protein (CETP) (Homo sapiens, UniProt P11597).
T1 construct: CETP is obtained from human plasma in partially purified form; from tissue; host or cells: human plasma
T1 sequence (P11597 18-493): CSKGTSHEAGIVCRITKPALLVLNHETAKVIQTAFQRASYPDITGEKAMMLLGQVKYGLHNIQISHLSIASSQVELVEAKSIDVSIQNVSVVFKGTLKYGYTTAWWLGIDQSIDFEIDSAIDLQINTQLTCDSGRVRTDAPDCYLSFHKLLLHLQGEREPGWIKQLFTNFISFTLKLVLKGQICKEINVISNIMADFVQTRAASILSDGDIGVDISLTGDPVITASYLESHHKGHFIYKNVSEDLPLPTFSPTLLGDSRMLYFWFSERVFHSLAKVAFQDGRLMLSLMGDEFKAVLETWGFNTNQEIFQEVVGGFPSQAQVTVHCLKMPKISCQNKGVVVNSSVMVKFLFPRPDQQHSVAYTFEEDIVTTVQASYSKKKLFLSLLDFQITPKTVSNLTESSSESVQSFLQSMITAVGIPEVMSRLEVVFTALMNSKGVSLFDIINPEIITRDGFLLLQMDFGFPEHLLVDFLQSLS
Description: CETP inhibition test: transfer of 3H-cholesterol ester from human HD lipoproteins to biotinylated LD lipoproteins (SPA). The format is biochemical. To be noted: human plasma CETP, 18 h, 37° C. As for the experimental part: CETP is obtained from human plasma in partially purified form by differential centrifugation and column chromatography and used for the test. To this end, human plasma is adjusted to a density of 1.21 g per ml using NaBr and centrifuged at 4° C. for 18 h at 50,000 rpm. The bottom fraction (d>1.21 g/ml) is applied to a Sephadex®phenyl-sepharose 4B (Pharmacia) column, washed with 0.15 M NaCl/0.001 M trisHCl pH 7.4 and then eluted with distilled water. The CETP-active fractions are pooled, dialysed against 50 mM Na acetate pH 4.5 and applied to a CM-Sepharose® (Pharmacia) column. The column is then eluted using a linear gradient (0-1 M NaCl). The pooled CETP fractions are dialysed against 10 mM trisHCl pH 7.4 and then further purified by chromatography on a Mono Q® column (Pharmacia).
50 ml of fresh human EDTA plasma are adjusted to a density of 1.12 using NaBr and centrifuged at 50,000 rpm for 18 h at 4° C. in a Ty 65 rotor. The upper phase is used to obtain cold LDL. The lower phase is dialysed against 3×4 l of PDB buffer (10 mM tris/HCl pH 7.4, […] NaCl, 1 mM EDTA, 0.02% NaN3). 20 μl of ^3 H-cholesterol (Dupont NET-725; 1 μC/μl dissolved in ethanol) are then added per 10 ml of retentate volume and the mixture is incubated under N2 at 37° C. for 72 h.
The mixture is then adjusted to the density 1.21 using NaBr and centrifuged at 20° C. for 18 h at 50,000 rpm in the Ty 65 rotor. The upper phase is recovered and the lipoprotein fractions are purified by gradient centrifugation. To this end, the isolated, labelled lipoprotein fraction is adjusted to a density of 1.26 using NaBr. Each 4 ml of this solution are covered with a layer of 4 ml of a solution of density 1.21 and 4.5 ml of a solution of 1.063 (density solutions from PDB buffer and NaBr) in centrifuge tubes (SW 40 rotor) and then centrifuged in the SW 40 rotor for 24 h at 38,000 rpm and 20° C. The intermediate layer lying between the densities 1.063 and 1.21 and containing the labelled HDL is dialysed at 4° C. against 3×100 volumes of PDB buffer.
The retentate contains radiolabelled ^3 H-CE-HDL which, adjusted to about 5×10^6 cmp per ml, is used for the test.
To test the CETP activity, the transfer of ^3 H-cholesterol ester from human HD lipoproteins to biotinylated LD lipoproteins is measured.
The reaction is ended by addition of streptavidin-SPA®beads (Amersham) and the transferred radioactivity is determined directly in a liquid scintillation counter.
In the test mixture, 10 μl of HDL-^3 H-cholesterol ester (~50,000 cpm) are incubated at 37° C. for 18 h with 10 μl of biotin-LDL (Amersham) in 50 mM Hepes/0.15 M NaCl/0.1% bovine serum albumin/0.05% NaN3 pH 7.4 with 10 μl of CETP (1 mg/ml) and 3 μl of solution of the substance to be tested (dissolved in 10% DMSO/1% RSA). 200 μl of the SPA-streptavidin bead solution (TRKQ 7005) are then added, the mixture is incubated further for 1 h with shaking and then measured in the scintillation counter. As controls, corresponding incubations with 10 μl of buffer, 10 μl of CETP at 4° C. and 10 μl of CETP at 37° C. are used.
The activity transferred into the control mixtures with CETP at 37° C. is rated as 100% transfer. The substance concentration at which this transfer is reduced by half is indicated as the IC50 value.

Assay [2] deals with lipoproteins and triglycerides. The experiment in a line: In vivo activity in transgenic hCETP mice (lipoproteins and triglycerides). To be noted: 400 ppm in the feed, one week. As for the experimental part:
Transgenic mice from in-house breeding (Dinchuck, Hart, Gonzalez, Karmann, Schmidt, Wirak; BBA (1995), 1295, 301) were administered the substances to be tested in the feed. Before the start of the experiment, blood was taken retro-orbitally from the mice in order to determine cholesterol and triglycerides in the serum. The serum was obtained as described above for hamsters by incubation at 4° C. overnight and subsequent centrifugation at 6000×g. After one week, blood was again taken from the mice in order to determine lipoproteins and triglycerides. The change in the parameters measured is expressed as a percentage change compared with the starting value.

SMILES strings stand for the structures.

In the case of `CC1Cc2nc(C3CCCC3)c(C(F)c3ccc(C(F)(F)F)cc3)c(-c3ccc(F)cc3)c2C(O)C1` (single isomer, unassigned) [Example 76], the “% HDL rise” value in the assay with HDL cholesterol is on record as “+15.81%”. Further, in assay [1], 6 nM corresponded to half-maximal inhibition (IC50). Also, in assay [2], the “HDL (percentage change compared with the starting value)” value is “+31.25%”, the “LDL (percentage change compared with the starting value)” value is given as -15.3% and the “Triglycerides (percentage change compared with the starting value)” value is -11.7%.

(Values after patent publication US6207671A, “Cycloalkano-pyridines” (Bayer Aktiengesellschaft, priority 1996, dated 2001).)
